Holding throughout (type): in vivo
The test system of series [1] is diamondback moths (Plutella xylostella). As to the kind of experiment: Insecticidal test for diamondback moths. As to conditions: Plutella xylostella, 144 h; 500 ppm chemical solution, leaves soaked, third-instar larvae, six days, 25°C; read-out: death rate. In short, it runs like this: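 Leaves dipped about 10 s in a 500 ppm aqueous dilution of an emulsion formulation with spreader, then air-dried. Five third-instar larvae released per dish and held at 25 °C. Tested in duplicate.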

Series [2] relates to brown rice planthoppers (Nilaparvata lugens). Kind of series: Insecticidal test for brown rice planthoppers. As to conditions: Nilaparvata lugens, 144 h; 500 ppm chemical solution, rice leaf sheaths soaked, third-instar larvae, six days, 25°C; read-out: death rate. In short, it runs like this:
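Rice leaf sheaths dipped ~10 s in 500 ppm compound solution (emulsion diluted in water with spreader), air-dried, then infested with five third-instar larvae per tube at 25 °C. Mortality scored after 6 days, death rate calculated, in duplicate.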

Series [3] concerns cat fleas (Ctenocephalides felis). Kind of series: whole plant or invertebrate. Particulars: 72 h, read-out: death rate. In short, it runs like this: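 Glass containers (25 cm² inner surface) were coated with 250 µl of a 1000 ppm acetone solution, and the acetone was evaporated to leave a dry film. Five mixed-sex adult fleas were confined per container at 25°C. Mortality was scored after 3 days.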

The subject of series [4] is green peach aphids (Myzus persicae). As to the kind of experiment: Insecticidal test for green peach aphids. As to conditions: Myzus persicae, foliar, 144 h; 500 ppm chemical solution sprinkled (2.5 mg/cm^2), wingless imagoes on leaf disc, six days, 25°C; read-out: death rate. As for the experimental part: Wet absorbent cotton was laid on each glass dish having an inner diameter of 3 cm, a Chinese olive leaf cut into a circle having a diameter of 3 cm was placed thereon, and four wingless green peach aphids (Myzus persicae) imagoes were released. After a day, a 10% by mass emulsion of the presently invented compound prepared according to the above formulation example for an emulsion was diluted with water containing a spreader to prepare a chemical solution having a concentration of 500 ppm. The chemical solution prepared was sprinkled (2.5 mg/cm^2) with a rotary tower sprinkler, and the dishes were capped and accommodated in a thermostatic room at 25°C. […] The test was carried out in duplicate.

The subject of series [5] is western flower thrips (Frankliniella occidentalis). Kind of series: Insecticidal activity against western flower thrips. As to conditions: Frankliniella occidentalis, 48 h; 500 ppm chemical solution sprinkled (2.5 mg/cm^2), larvae on common bean leaf, after 2 days; read-out: death rate. In short, it runs like this: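 Bean leaf squares on wet filter paper inoculated with 20 larvae. Compound emulsion diluted with spreader-containing water to 500 ppm and sprayed at 2.5 mg/cm^2 by rotary tower. Run in duplicate.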

Series [6] has as its system kennel ticks (Rhipicephalus sanguineus). As to the kind of experiment: Effect test for kennel ticks. Particulars: 10 µg/cm^2 thin film in glass container, protonymphs, two days, 25°C. As for the experimental part: In 1 ml of acetone, 1 mg of the presently invented compound was dissolved to prepare a chemical solution having a concentration of 1000 ppm. The bottom surface and side surface of each glass container having an inner wall surface area of 25 cm^2 were coated with 250 µl of the chemical solution, and acetone was then volatilized to form a thin film of the compound on the inner wall of the glass container.
Into each of the treated glass containers, five kennel ticks (Rhipicephalus sanguineus) protonymphs (mixed-sex) were released, and the glass containers were capped and accommodated in a thermostatic room at 25°C.

Take `O=C(Nc1ncccc1F)C1=C(O)CC(c2cnc(Cl)c(-c3cnccc3F)c2)NC1=O` (stereo not drawn) [2-141]: the mortality at 500 µg/mL in series [1], in series [2], in series [4] and in series [5] was at least 90% throughout. For the same compound, the mortality at 10 µg/cm2 in series [3] was at least 50%.
As to `O=C(Nc1cnccc1F)C1=C(O)CC(c2cnc(Cl)c(-c3cncc(Cl)c3)c2)NC1=O` (stereo not drawn) [2-146], the mortality at 500 µg/mL in series [1], in series [2], in series [4] and in series [5] was at least 90% throughout. Moreover, the mortality at 10 µg/cm2 in series [3] was at least 50%.
Turning to `O=C(Nc1nccs1)C1=C(O)CC(c2cnc(C(F)(F)F)c(-c3ccc(F)nc3)c2)NC1=O` (stereo not drawn) [2-184], the mortality at 500 µg/mL in series [1], in series [2], in series [4] and in series [5] was at least 90% in each case. Besides, the mortality at 10 µg/cm2 in series [3] was at least 50%.
As to `Cc1cccc(-c2cc(C3CC(O)=C(C(=O)Nc4ncccn4)C(=O)N3)cnc2Cl)c1` (stereo not drawn) [2-271], the mortality at 500 µg/mL in series [1], in series [2], in series [4] and in series [5] was at least 90% in each case. Moreover, in series [3], the mortality at 10 µg/cm2 was at least 50%.
Consider `O=C(Nc1ccc(F)cc1)C1=C(O)CC(c2nc(-c3cccc(F)c3)no2)NC1=O` (stereo not drawn) [3-011], for which the mortality at 500 µg/mL in series [1], in series [2], in series [4] and in series [5] was at least 90% each time. Moreover, the mortality at 10 µg/cm2 in series [3] was at least 50%.
Turning to `O=C(Nc1ccc(F)cc1)C1=C(O)CC(c2nc(-c3ccc(F)c(F)c3)no2)NC1=O` (stereo not drawn) [3-027], the mortality at 500 µg/mL in series [1], in series [2], in series [4] and in series [5] was at least 90% in each case. In series [3], the mortality at 10 µg/cm2 is at least 50%.
With `O=C(Nc1ccc(F)cc1)C1=C(O)CC(c2nc(-c3cccc(Br)c3)no2)NC1=O` (stereo not drawn) [3-028], the mortality at 500 µg/mL in series [1], in series [2], in series [4] and in series [5] was at least 90% in each case. Further, the mortality at 10 µg/cm2 in series [3] is at least 50%.
On to `O=C(Nc1cc(F)ccn1)C1=C(O)CC(c2nc(-c3cccc(F)c3F)no2)NC1=O` (stereo not drawn) [3-049], for which the mortality at 500 µg/mL in series [1], in series [2], in series [4] and in series [5] was at least 90% each time. In addition, the mortality at 10 µg/cm2 in series [3] is at least 50%.
For the compound `O=C(Nc1cc(F)ccn1)C1=C(O)CC(c2nc(-c3ccccc3)no2)NC1=O` (stereo not drawn) [3-055], the mortality at 500 µg/mL in series [1], in series [2], in series [4] and in series [5] was at least 90% throughout. Moreover, the mortality at 10 µg/cm2 in series [3] is at least 50%.
Consider `O=C(Nc1cc(F)ccn1)C1=C(O)CC(c2nc(-c3ccc(F)cc3)no2)NC1=O` (stereo not drawn) [3-056], for which the mortality at 500 µg/mL in series [1], in series [2], in series [4] and in series [5] was at least 90% each time. The mortality at 10 µg/cm2 in series [3] was at least 50%.
As to `O=C(Nc1cc(F)ccn1)C1=C(O)CC(c2nc(-c3ccccc3F)no2)NC1=O` (stereo not drawn) [3-058], the mortality at 500 µg/mL in series [1], in series [2], in series [4] and in series [5] was at least 90% in each case. In series [3], the mortality at 10 µg/cm2 is at least 50%.
With `O=C(Nc1ccc(F)cn1)C1=C(O)CC(c2nc(-c3ccc(O)nc3)no2)NC1=O` (stereo not drawn) [3-101], the death rate in series [6] was at least 50%.
In the case of `O=C(Nc1ccc(F)cc1)C1=C(O)CC(c2nc(-c3ccc(F)cc3F)no2)NC1=O` (stereo not drawn) [3-131], the mortality at 500 µg/mL in series [1], in series [2], in series [4] and in series [5] was at least 90% in each case. For the same compound, the mortality at 10 µg/cm2 in series [3] was at least 50%.
On to `O=C(Nc1ccccn1)C1=C(O)CC(c2nc(-c3ccc(F)cc3F)no2)NC1=O` (stereo not drawn) [3-132], for which the mortality at 500 µg/mL in series [1], in series [2], in series [4] and in series [5] was at least 90% throughout. Moreover, the mortality at 10 µg/cm2 in series [3] is at least 50%.
For `O=C(Nc1cc(F)ccn1)C1=C(O)CC(c2nc(-c3c(F)cc(F)cc3F)no2)NC1=O` (stereo not drawn) [3-144], the mortality at 500 µg/mL in series [1], in series [2], in series [4] and in series [5] was at least 90% throughout. Moreover, the mortality at 10 µg/cm2 in series [3] was at least 50%.
With `Cc1cccnc1NC(=O)C1=C(O)CC(c2nc(-c3ccc(F)cc3F)no2)NC1=O` (stereo not drawn) [3-174], the mortality at 500 µg/mL in series [1], in series [2], in series [4] and in series [5] was at least 90% in each case. The mortality at 10 µg/cm2 in series [3] was at least 50%.
As to `O=C(Nc1ccccn1)C1=C(O)CC(c2nc(-c3ccccc3F)no2)NC1=O` (stereo not drawn) [3-186], the mortality at 10 µg/cm2 in series [6] (Rhipicephalus sanguineus, 48 h, read-out: death rate) is at least 50%; in series [3], at least 50%. In addition, the mortality at 500 µg/mL in series [1], in series [2] and in series [5] was at least 90% in each case.
Take `O=C(Nc1cnccc1Cl)C1=C(O)CC(c2nc(-c3ccncc3Cl)no2)NC1=O` (stereo not drawn) [3-228]: the mortality at 500 µg/mL in series [1], in series [2], in series [4] and in series [5] was at least 90% in each case. Also, the mortality at 10 µg/cm2 in series [3] is at least 50%.
Take `O=C(Nc1cc(Br)ccn1)C1=C(O)CC(c2nc(-c3ccncc3Cl)no2)NC1=O` (stereo not drawn) [3-232]: the mortality at 500 µg/mL in series [1], in series [2], in series [4] and in series [5] was at least 90% throughout. Also, the mortality at 10 µg/cm2 in series [3] was at least 50%.
Consider `O=C(Nc1ccc(F)cn1)C1=C(O)CC(c2nc(-c3ccncc3Cl)no2)NC1=O` (stereo not drawn) [3-236], for which the mortality at 500 µg/mL in series [1], in series [2], in series [4] and in series [5] was at least 90% in each case. The mortality at 10 µg/cm2 in series [3] was at least 50%.
Turning to `O=C(Nc1nccs1)C1=C(O)CC(c2nc(-c3ccncc3F)no2)NC1=O` (stereo not drawn) [3-246], the mortality at 500 µg/mL in series [1], in series [2], in series [4] and in series [5] was at least 90% throughout. The mortality at 10 µg/cm2 in series [3] is at least 50%.
On to `O=C(Nc1ccc(F)cn1)C1=C(O)CC(c2nc(-c3snc(Cl)c3Cl)no2)NC1=O` (stereo not drawn) [3-254], for which the mortality at 500 µg/mL in series [1], in series [2], in series [4] and in series [5] was at least 90% throughout. Besides, in series [3], the mortality at 10 µg/cm2 was at least 50%.
`O=C(Nc1cnccn1)C1=C(O)CC(c2nc(-c3ccc(F)nc3)no2)NC1=O` (stereo not drawn) [3-257]: the mortality at 500 µg/mL in series [1], in series [2], in series [4] and in series [5] was at least 90% in each case. Also, the mortality at 10 µg/cm2 in series [3] was at least 50%.
In the case of `O=C(Nc1ccc(F)cn1)C1=C(O)CC(c2nc(-c3ncco3)no2)NC1=O` (stereo not drawn) [3-265], the mortality at 500 µg/mL in series [1], in series [2], in series [4] and in series [5] was at least 90% in each case. In addition, the mortality at 10 µg/cm2 in series [3] was at least 50%.
Take `O=C(Nc1cnc(Cl)cn1)C1=C(O)CC(c2nc(-c3ccnc(Cl)c3)no2)NC1=O` (stereo not drawn) [3-268]: the mortality at 500 µg/mL in series [1], in series [2], in series [4] and in series [5] was at least 90% in each case. Also, the mortality at 10 µg/cm2 in series [3] was at least 50%.
On to `O=C(Nc1cnc(Cl)cn1)C1=C(O)CC(c2nc(-c3ccc(F)nc3)no2)NC1=O` (stereo not drawn) [3-269], for which the mortality at 500 µg/mL in series [1], in series [2], in series [4] and in series [5] was at least 90% each time. The mortality at 10 µg/cm2 in series [3] was at least 50%.
